Blank lines part the entries; values can stand above or below the compound they belong to.
Key:
[1] = target: High affinity nerve growth factor receptor (Homo sapiens, UniProt P04629); assay: Inhibition of TRKA (unknown origin) using TK as substrate in presence of ATP incubated for 30 mins by HTRF KinEASE assay
[2] = target: Serine/threonine-protein kinase PAK 4 (Homo sapiens, UniProt O96013); assay: Inhibition of PAK4 (unknown origin)
[3] = target: T1, Serine/threonine-protein kinase PLK4 (Homo sapiens, UniProt O00444); assay: Inhibition of PLK4 (unknown origin)
T1 sequence (O00444 whole entry): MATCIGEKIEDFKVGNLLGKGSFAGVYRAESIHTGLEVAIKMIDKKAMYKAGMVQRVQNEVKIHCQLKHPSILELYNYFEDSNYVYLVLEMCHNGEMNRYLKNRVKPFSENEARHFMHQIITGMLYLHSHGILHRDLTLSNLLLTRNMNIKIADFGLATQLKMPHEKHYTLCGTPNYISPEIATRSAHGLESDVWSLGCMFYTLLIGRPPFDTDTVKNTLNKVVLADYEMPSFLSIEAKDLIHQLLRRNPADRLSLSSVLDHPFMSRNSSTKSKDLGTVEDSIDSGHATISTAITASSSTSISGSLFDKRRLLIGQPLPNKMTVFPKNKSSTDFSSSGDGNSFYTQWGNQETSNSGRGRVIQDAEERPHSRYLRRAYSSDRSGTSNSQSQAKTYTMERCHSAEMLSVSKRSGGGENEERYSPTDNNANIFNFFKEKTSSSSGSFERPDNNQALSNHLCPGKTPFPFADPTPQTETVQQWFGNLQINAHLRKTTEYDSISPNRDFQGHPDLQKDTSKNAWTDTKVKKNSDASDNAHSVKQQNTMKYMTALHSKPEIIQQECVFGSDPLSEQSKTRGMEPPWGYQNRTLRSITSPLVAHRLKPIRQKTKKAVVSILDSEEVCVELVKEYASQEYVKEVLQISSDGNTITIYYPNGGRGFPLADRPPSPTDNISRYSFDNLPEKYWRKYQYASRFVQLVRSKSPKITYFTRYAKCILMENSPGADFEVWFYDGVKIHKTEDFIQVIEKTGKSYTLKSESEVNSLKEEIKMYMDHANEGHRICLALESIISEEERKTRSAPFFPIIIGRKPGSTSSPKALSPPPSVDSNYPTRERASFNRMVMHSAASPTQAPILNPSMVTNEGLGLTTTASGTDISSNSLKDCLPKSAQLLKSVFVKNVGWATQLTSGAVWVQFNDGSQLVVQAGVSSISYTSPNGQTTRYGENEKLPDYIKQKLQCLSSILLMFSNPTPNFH

Focal adhesion kinase 1 = Focal adhesion kinase 1 (Homo sapiens, UniProt Q05397); assay: Inhibition of FAK (unknown origin)
Focal adhesion kinase 1, sequence (Q05397 whole entry): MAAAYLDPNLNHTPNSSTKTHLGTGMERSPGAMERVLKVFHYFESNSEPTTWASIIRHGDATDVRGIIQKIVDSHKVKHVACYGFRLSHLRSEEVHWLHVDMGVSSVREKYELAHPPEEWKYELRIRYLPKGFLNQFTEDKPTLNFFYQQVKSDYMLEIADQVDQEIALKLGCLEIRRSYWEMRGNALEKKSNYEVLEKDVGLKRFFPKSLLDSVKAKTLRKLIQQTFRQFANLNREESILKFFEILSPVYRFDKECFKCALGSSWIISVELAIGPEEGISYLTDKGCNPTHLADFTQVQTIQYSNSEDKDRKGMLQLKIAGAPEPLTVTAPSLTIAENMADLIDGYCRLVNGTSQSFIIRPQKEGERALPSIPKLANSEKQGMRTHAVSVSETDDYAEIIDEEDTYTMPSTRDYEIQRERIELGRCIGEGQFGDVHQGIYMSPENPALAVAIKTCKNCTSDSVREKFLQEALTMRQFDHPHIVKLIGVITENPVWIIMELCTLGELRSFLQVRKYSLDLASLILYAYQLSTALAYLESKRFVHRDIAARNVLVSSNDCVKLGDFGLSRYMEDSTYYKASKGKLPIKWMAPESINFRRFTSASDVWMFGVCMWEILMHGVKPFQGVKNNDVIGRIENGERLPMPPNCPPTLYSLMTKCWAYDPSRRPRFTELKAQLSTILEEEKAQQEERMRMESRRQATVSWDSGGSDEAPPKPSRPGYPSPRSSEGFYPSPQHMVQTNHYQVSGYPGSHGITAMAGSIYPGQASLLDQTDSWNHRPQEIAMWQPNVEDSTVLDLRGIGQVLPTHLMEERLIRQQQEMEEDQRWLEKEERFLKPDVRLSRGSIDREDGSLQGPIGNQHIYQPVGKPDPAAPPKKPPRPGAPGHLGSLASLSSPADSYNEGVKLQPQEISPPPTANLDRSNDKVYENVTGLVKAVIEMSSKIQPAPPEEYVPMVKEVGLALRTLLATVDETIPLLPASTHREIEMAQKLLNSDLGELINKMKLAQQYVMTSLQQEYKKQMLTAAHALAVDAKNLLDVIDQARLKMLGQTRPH

MCF7 = assay: Antiproliferative activity against human MCF7 cells assessed as cell growth inhibition incubated for 72 hrs by CCK-8 assay; format: functional, cell-based; settings: MCF7, 72 h
[4] = Inhibition of tyrosine kinase (unknown origin); parameters: species or system Homo sapiens
KM12 = assay: Antiproliferative activity against human KM12 cells assessed as cell growth inhibition incubated for 72 hrs by CCK-8 assay; format: functional, cell-based; settings: KM12, 72 h
CYP1A2 = target: T2, CYP1A2 (Homo sapiens, UniProt P05177); assay: Inhibition of CYP1A2 in human liver microsomes using phenacetin as substrate at 10 uM preincubated for 10 mins followed by NADPH addition and measured after 15 mins by LC-MS/MS analysis; format: ADME, Microsome; settings: probe phenacetin, time 25 min
T2 sequence (P05177 whole entry): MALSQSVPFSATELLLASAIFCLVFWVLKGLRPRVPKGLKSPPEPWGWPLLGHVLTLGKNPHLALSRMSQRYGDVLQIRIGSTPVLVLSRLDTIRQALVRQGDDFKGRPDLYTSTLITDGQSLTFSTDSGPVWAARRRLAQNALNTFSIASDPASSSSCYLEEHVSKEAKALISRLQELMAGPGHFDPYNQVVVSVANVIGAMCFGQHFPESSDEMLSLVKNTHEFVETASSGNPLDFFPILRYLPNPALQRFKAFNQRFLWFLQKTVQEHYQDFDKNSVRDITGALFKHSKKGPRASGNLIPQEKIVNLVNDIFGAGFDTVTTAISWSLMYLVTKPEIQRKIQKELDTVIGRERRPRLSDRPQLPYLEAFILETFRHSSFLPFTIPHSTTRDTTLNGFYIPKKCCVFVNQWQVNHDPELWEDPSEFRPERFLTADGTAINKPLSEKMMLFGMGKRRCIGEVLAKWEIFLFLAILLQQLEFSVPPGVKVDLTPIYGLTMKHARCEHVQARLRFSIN

CYP2C19 = CYP2C19 (Homo sapiens, UniProt P33261); assay: Inhibition of CYP2C19 in human liver microsomes using S-mephenytoin as substrate at 10 uM preincubated for 10 mins followed by NADPH addition and measured after 15 mins by LC-MS/MS analysis; format: ADME, Microsome; settings: probe S-mephenytoin, time 25 min
CYP2C19, sequence (P33261 whole entry): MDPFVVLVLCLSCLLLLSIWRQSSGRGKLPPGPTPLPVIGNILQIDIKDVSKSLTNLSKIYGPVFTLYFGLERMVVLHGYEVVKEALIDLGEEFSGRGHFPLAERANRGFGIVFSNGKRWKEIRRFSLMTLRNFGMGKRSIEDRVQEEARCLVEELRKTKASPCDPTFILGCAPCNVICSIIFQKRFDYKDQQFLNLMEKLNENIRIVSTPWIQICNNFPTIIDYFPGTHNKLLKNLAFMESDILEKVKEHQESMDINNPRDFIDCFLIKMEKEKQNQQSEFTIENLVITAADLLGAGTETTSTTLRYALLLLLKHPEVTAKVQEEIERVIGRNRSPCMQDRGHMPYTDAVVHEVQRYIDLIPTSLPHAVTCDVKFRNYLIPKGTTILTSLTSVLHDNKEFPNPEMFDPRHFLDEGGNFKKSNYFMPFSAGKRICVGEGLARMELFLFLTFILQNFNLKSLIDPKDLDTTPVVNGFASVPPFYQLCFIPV

[5] = Stability in human plasma assessed as parent compound remaining at 100 uM and measured after 30 mins by LC-MS/MS analysis; format: ADME, cell-free; settings: read-out: Stability
[6] = Stability in human plasma assessed as parent compound remaining at 100 uM and measured after 60 mins by LC-MS/MS analysis; format: ADME, cell-free; settings: read-out: Stability
[7] = Stability in human plasma assessed as parent compound remaining at 100 uM and measured after 10 mins by LC-MS/MS analysis; format: ADME, cell-free; settings: read-out: Stability
CYP2C9 = CYP2C9 (Homo sapiens, UniProt P11712); assay: Inhibition of CYP2C9 in human liver microsomes using diclofenac as substrate at 10 uM preincubated for 10 mins followed by NADPH addition and measured after 15 mins by LC-MS/MS analysis; format: ADME, Microsome; settings: probe diclofenac, time 25 min
CYP2C9, sequence (P11712 whole entry): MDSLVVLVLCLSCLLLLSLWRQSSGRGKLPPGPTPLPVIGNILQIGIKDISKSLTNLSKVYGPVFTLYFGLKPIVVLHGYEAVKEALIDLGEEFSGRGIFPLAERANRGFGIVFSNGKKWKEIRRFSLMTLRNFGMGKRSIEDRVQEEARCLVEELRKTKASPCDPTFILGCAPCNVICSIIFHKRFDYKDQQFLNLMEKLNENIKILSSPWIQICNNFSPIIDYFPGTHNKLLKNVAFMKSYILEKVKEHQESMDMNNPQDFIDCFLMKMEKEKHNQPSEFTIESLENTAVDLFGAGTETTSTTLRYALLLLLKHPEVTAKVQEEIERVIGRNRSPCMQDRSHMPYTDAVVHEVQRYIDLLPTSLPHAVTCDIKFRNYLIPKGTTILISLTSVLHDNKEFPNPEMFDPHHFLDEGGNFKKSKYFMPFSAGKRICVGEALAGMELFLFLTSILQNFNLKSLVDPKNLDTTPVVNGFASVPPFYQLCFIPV

[8] = Stability in human plasma assessed as half life at 100 uM and measured after 120 mins by LC-MS/MS analysis; format: ADME, cell-free
[9] = Stability in human plasma assessed as parent compound remaining at 100 uM and measured after 0 mins by LC-MS/MS analysis; format: ADME, cell-free; settings: read-out: Stability
CYP2D6 = CYP2D6 (Homo sapiens, UniProt P10635); assay: Inhibition of CYP2D6 in human liver microsomes using dextromethorphan as substrate at 10 uM preincubated for 10 mins followed by NADPH addition and measured after 15 mins by LC-MS/MS analysis; format: ADME, Microsome; settings: probe dextromethorphan, time 25 min
CYP2D6, sequence (P10635 whole entry): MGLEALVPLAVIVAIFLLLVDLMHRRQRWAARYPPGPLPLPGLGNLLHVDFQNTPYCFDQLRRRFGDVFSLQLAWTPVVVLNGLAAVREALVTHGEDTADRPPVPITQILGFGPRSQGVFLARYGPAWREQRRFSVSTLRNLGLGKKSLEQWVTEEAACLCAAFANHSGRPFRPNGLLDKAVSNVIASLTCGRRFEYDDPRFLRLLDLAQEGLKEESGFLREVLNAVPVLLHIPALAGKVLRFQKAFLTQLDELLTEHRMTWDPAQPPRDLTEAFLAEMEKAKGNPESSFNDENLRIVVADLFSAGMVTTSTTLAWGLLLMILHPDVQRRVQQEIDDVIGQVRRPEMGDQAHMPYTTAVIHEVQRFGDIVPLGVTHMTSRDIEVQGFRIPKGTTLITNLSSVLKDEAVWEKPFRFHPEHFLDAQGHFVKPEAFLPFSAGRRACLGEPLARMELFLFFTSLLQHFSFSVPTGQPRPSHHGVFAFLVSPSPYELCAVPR

CYP3A4 = CYP3A4 (Homo sapiens, UniProt P08684); assay: Inhibition of CYP3A4 in human liver microsomes using midazolam as substrate at 10 uM preincubated for 10 mins followed by NADPH addition and measured after 15 mins by LC-MS/MS analysis; format: ADME, Microsome; settings: probe midazolam, time 25 min
CYP3A4, sequence (P08684 whole entry): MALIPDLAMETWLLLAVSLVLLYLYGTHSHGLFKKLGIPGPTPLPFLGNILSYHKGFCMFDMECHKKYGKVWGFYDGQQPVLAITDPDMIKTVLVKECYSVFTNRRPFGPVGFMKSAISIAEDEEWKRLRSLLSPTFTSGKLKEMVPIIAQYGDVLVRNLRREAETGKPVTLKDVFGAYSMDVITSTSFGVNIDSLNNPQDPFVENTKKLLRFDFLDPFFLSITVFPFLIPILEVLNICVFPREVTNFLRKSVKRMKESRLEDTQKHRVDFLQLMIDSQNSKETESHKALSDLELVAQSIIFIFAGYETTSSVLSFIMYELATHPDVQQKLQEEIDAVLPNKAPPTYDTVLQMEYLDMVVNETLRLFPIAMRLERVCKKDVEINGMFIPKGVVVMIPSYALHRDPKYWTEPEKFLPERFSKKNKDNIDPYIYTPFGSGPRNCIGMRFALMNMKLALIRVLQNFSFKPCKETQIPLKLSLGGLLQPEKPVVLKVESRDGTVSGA

[10] = Stability in human plasma assessed as parent compound remaining at 100 uM and measured after 120 mins by LC-MS/MS analysis; format: ADME, cell-free; settings: read-out: Stability

Serine/threonine-protein kinase PAK 4, sequence (O96013 whole entry): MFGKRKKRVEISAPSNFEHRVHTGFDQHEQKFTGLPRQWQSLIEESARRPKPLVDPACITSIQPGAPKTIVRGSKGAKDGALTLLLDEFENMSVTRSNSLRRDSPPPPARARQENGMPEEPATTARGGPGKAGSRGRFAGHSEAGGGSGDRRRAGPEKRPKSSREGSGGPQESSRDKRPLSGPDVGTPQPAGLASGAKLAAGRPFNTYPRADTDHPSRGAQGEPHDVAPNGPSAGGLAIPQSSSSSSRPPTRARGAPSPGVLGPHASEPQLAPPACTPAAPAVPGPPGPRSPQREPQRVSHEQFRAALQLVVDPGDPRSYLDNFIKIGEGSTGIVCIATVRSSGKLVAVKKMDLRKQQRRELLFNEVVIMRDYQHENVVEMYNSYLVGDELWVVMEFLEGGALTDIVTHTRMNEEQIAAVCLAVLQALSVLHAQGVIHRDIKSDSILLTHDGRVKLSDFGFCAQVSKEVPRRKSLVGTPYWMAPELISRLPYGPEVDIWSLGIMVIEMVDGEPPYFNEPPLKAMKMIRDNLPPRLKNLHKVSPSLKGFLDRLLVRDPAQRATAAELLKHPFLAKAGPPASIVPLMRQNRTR
High affinity nerve growth factor receptor, sequence (P04629 whole entry): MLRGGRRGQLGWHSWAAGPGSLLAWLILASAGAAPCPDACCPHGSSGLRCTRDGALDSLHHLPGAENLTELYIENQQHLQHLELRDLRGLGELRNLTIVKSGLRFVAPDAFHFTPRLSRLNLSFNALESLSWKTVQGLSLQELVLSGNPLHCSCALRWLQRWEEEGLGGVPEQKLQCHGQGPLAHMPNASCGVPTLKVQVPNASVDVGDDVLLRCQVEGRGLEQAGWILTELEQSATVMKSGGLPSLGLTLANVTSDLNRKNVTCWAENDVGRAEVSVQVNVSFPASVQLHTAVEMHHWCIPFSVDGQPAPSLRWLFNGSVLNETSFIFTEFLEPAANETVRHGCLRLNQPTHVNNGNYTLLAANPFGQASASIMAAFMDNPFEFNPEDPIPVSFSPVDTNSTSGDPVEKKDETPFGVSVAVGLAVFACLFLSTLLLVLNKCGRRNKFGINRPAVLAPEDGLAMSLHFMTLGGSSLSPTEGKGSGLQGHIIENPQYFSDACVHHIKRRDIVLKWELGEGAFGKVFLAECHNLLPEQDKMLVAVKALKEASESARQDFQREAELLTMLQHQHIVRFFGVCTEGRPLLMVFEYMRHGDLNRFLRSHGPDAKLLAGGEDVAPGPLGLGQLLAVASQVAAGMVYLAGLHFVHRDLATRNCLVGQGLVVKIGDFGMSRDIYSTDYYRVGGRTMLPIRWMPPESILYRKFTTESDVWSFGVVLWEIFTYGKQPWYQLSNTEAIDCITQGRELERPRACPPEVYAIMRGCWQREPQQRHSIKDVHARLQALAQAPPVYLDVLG

IC50 [1]: 0.156 µM
SMILES: O=C(c1ccc(Nc2n[nH]c3ncc(Cc4cc(F)ccc4F)cc23)cc1)N1CCCC(O)C1 (configuration not stated)

IC50 [1]: 0.409 µM
SMILES: O=C(c1ccc(Nc2n[nH]c3ncc(Cc4cc(F)ccc4F)cc23)cc1)N1CCNCC1

IC50 [1]: 0.205 µM
SMILES: O=C(c1cccc(Nc2n[nH]c3ncc(Cc4cc(F)ccc4F)cc23)c1)N1CCCC(O)C1 (configuration not stated)

IC50 [1]: 0.838 µM
SMILES: O=C(c1cccc(Nc2n[nH]c3ncc(Cc4c(F)cccc4F)cc23)c1)N1CCOCC1

IC50 [2]: > 100 µM | IC50 [3]: 1.32 µM | IC50 (Focal adhesion kinase 1): > 100 µM
SMILES: O=C(c1cccc(-c2n[nH]c3ncc(Cc4cc(F)ccc4F)cc23)c1)N1CCC[C@H](O)C1

IC50 [1]: 0.389 µM
SMILES: CN1CCN(C(=O)c2ccc(Nc3n[nH]c4ncc(Cc5cc(F)ccc5F)cc34)cc2)CC1

IC50 [1]: 0.66 µM
SMILES: O=C(c1cccc(Nc2n[nH]c3ncc(Cc4cc(F)c(F)c(F)c4)cc23)c1)N1CCOCC1

IC50 [1]: 16.7 µM
SMILES: O=C(c1cccc(Nc2n[nH]c3ncc(Cc4cccc(C(F)(F)F)c4)cc23)c1)N1CCOCC1

IC50 [2]: > 100 µM | IC50 [3]: 0.69 µM | IC50 (Focal adhesion kinase 1): > 100 µM
SMILES: O=C(c1cccc(-c2n[nH]c3ncc(Cc4cc(F)ccc4F)cc23)c1)N1CCC[C@@H](O)C1

IC50 [1]: 2.78 µM
SMILES: O=C(c1cccc(Nc2n[nH]c3ncc(Cc4ccc(F)cc4)cc23)c1)N1CCOCC1

IC50 [1]: 0.254 µM
SMILES: O=C(c1cccc(-c2n[nH]c3ncc(Cc4cc(F)ccc4F)cc23)c1)N1CCC(O)CC1

IC50 (MCF7): > 40 µM | IC50 [4]: < 0.02 µM
SMILES: O=C(Nc1cnn2ccc(N3CCC[C@@H]3c3cc(F)ccc3F)nc12)N1CC[C@H](O)C1 [LAROTRECTINIB]
IC50 (KM12): 0.012 µM

IC50 [1]: 0.98 µM
SMILES: O=C(c1ccc(Nc2n[nH]c3ncc(Cc4cc(F)ccc4F)cc23)cc1)N1CCOCC1

IC50 [1]: 0.7 µM
SMILES: O=C(c1cccc(Nc2n[nH]c3ncc(Cc4cc(F)cc(F)c4)cc23)c1)N1CCOCC1

IC50 [2]: > 100 µM | inhibition at 0.25 h, 10 µM (CYP1A2): 16.6% | inhibition at 0.25 h, 10 µM (CYP2C19): 48.6% | remaining at 0.5 h, 100 µM [5]: 88% | remaining at 1 h, 100 µM [6]: 93.6% | remaining at 10 min, 100 µM [7]: 104% | inhibition at 0.25 h, 10 µM (CYP2C9): 66.6% | IC50 [3]: 1.65 µM | half-life at 100 µM [8]: > 4.82 h | remaining at 0 h, 100 µM [9]: 100% | inhibition at 0.25 h, 10 µM (CYP2D6): 25.8% | inhibition at 0.25 h, 10 µM (CYP3A4): 0% | remaining at 2 h, 100 µM [10]: 89.1% | IC50 (Focal adhesion kinase 1): > 100 µM
SMILES: O=C(c1cccc(-c2n[nH]c3ncc(Cc4cc(F)ccc4F)cc23)c1)N1CCCC(O)C1 (configuration not stated)

IC50 [1]: 0.437 µM
SMILES: NC1CCN(C(=O)c2cccc(Nc3n[nH]c4ncc(Cc5cc(F)ccc5F)cc34)c2)CC1

IC50 [1]: > 100 µM
SMILES: O=C(c1cccc(Nc2n[nH]c3ncc(Cc4ccc(F)c(F)c4)cc23)c1)N1CCOCC1

IC50 [1]: 1.97 µM
SMILES: O=C(c1cccc(Nc2n[nH]c3ncc(Cc4cccc(F)c4F)cc23)c1)N1CCOCC1
